# Active and inactive are the calls of the source. The calls are words filed in the database; no cut-off is given here.
# How the values were obtained:
# [1] = tested on: HT-29; assay: Growth inhibition of human HT-29 cells after 72 hrs by MTS-PMS assay; type: functional; conditions: HT-29, 72 h
# [2] = Growth inhibition of human U87MG cells after 72 hrs by MTS-PMS assay; type: functional, U-87MG ATCC; conditions: U-87 MG
# [3] = […] of hedgehog signaling in mouse C3H10T1/2 cells assessed as effect on GLI1 mRNA expression at 1 to 10 uM after 24 hrs by RT-PCR analysis in presence of oxysterol; type: cell-based; conditions: C3H 10T1/2
# [4] = biological target: T1, Vitamin D3 receptor (Mus musculus) (UniProt P48281); assay: Activation of VDR in mouse C3H10T1/2 cells assessed as upregulation of CYP24A1 mRNA expression at 1 to 10 uM after 24 hrs by RT-PCR analysis; type: cell-based; conditions: C3H 10T1/2
# T1 sequence (whole entry): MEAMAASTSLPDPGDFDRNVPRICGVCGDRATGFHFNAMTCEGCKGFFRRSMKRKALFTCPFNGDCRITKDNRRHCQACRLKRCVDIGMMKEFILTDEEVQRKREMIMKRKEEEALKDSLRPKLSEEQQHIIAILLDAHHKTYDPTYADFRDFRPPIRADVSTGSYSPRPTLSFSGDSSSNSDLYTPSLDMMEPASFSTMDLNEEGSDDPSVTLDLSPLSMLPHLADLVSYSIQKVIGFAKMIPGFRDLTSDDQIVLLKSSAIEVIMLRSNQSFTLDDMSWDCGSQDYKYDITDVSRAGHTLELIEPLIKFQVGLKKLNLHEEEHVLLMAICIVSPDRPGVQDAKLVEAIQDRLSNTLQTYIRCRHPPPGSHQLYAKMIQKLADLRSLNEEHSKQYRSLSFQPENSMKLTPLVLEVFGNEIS
# [5] = Cytotoxicity against mouse C3H10T1/2 cells at 10 uM after 24 hrs; type: cell-based; conditions: c3h 10t1/2, 24 h
# [6] = […] of hedgehog signaling in mouse C3H10T1/2 cells assessed as downregulation of GLI1 mRNA expression at 5 uM after 24 hrs by RT-PCR analysis in presence of oxysterol; type: cell-based; conditions: C3H 10T1/2
# [7] = biological target: T1, Vitamin D3 receptor (Mus musculus); assay: Activation of VDR in mouse C3H10T1/2 cells assessed as upregulation of CYP24A1 mRNA expression at 5 uM after 24 hrs by RT-PCR analysis relative to DMSO-treated control; type: cell-based; conditions: C3H 10T1/2
# [8] = tested on: HT-29; assay: Ratio of GI50 for human U87MG cells to GI50 for human HT-29 cells; type: functional
Compound,GI50 [1],GI50 [2],further results
C[C@H](COC(=O)c1ccccn1)[C@H]1CC[C@H]2[C@@H](O)CCC[C@]12C,> 100 µM,> 100 µM,–
COc1ccc(C(=O)OC[C@@H](C)[C@H]2CC[C@H]3[C@@H](O)CCC[C@]23C)cc1,39.8 µM,33.1 µM,–
C[C@H](COC(=O)C1CC1)[C@H]1CC[C@H]2[C@@H](O)CCC[C@]12C,82.6 µM,> 100 µM,–
C[C@H](COC(=O)c1ccccc1)[C@H]1CC[C@H]2[C@@H](OC(=O)c3ccccc3)CCC[C@]12C,> 100 µM,> 100 µM,–
C[C@H](COC(=O)C(C)(C)C)[C@H]1CC[C@H]2[C@@H](O)CCC[C@]12C,11.9 µM,17.1 µM,Activity [3]: inactive; Activity [4]: inactive
C[C@H](COC(=O)c1ccccc1O)[C@H]1CC[C@H]2[C@@H](O)CCC[C@]12C,14.1 µM,18.8 µM,Activity [3]: inactive; Activity [4]: inactive; Activity [5]: Toxic
C[C@H](COC(=O)c1ccncc1)[C@H]1CC[C@H]2[C@@H](O)CCC[C@]12C,> 100 µM,> 100 µM,–
C[C@H](CN)[C@H]1CC[C@H]2[C@@H](O)CCC[C@]12C,> 100 µM,> 100 µM,–
C[C@H](COC(=O)c1ccccc1)[C@H]1CC[C@H]2[C@@H](O)CCC[C@]12C,22.6 µM,24.6 µM,Activity [4]: inactive
C[C@H](COC(=O)c1ccc(O)cc1)[C@H]1CC[C@H]2[C@@H](O)CCC[C@]12C,41 µM,67 µM,–
C[C@H](COC(=O)c1cccc(Cl)c1)[C@H]1CC[C@H]2[C@@H](O)CCC[C@]12C,26.2 µM,69 µM,–
C[C@H](CNC(=O)c1ccc(Cl)cc1)[C@H]1CC[C@H]2[C@@H](O)CCC[C@]12C,32.3 µM,42.9 µM,–
C[C@H](COC(=O)c1ccc2ccccc2c1)[C@H]1CC[C@H]2[C@@H](O)CCC[C@]12C,19.8 µM,51.3 µM,–
COc1ccccc1C(=O)OC[C@@H](C)[C@H]1CC[C@H]2[C@@H](O)CCC[C@]12C,35.7 µM,56 µM,–
C[C@H](COC(=O)C1CCC1)[C@H]1CC[C@H]2[C@@H](O)CCC[C@]12C,27 µM,27.1 µM,–
C[C@H](COC(=O)c1cccc(O)c1)[C@H]1CC[C@H]2[C@@H](O)CCC[C@]12C,70.3 µM,76.9 µM,–
C[C@H](COC(=O)c1ccco1)[C@H]1CC[C@H]2[C@@H](O)CCC[C@]12C,> 100 µM,79.1 µM,–
C[C@H](CNC(=O)c1ccccc1O)[C@H]1CC[C@H]2[C@@H](O)CCC[C@]12C,68.2 µM,> 100 µM,–
C[C@H](COC(=O)c1cccc2ccccc12)[C@H]1CC[C@H]2[C@@H](O)CCC[C@]12C,35.3 µM,39.2 µM,–
C=C1CC[C@H](O)C/C1=C/C=C1\CCC[C@]2(C)[C@@H]([C@H](C)CCCC(C)C)CC[C@@H]12 [CHOLECALCIFEROL],53.8 µM,–,Activity [6]: Active; fold change (FC) [7]: 8000
C[C@H](COC(=O)c1cccnc1)[C@H]1CC[C@H]2[C@@H](O)CCC[C@]12C,95.2 µM,> 100 µM,–
C[C@H](COC(=O)C1CCCC1)[C@H]1CC[C@H]2[C@@H](O)CCC[C@]12C,22.1 µM,21.7 µM,–
C[C@H](COC(=O)c1ccc(Cl)cc1)[C@H]1CC[C@H]2[C@@H](O)CCC[C@]12C,15.9 µM,31.4 µM,RatioGI50 [8]: 2
C[C@H](CNC(=O)C1CCCCC1)[C@H]1CC[C@H]2[C@@H](O)CCC[C@]12C,84.1 µM,> 100 µM,–
COc1cccc(C(=O)OC[C@@H](C)[C@H]2CC[C@H]3[C@@H](O)CCC[C@]23C)c1,23.7 µM,15.9 µM,–
C[C@H](COC(=O)C1CCCCC1)[C@H]1CC[C@H]2[C@@H](O)CCC[C@]12C,15.2 µM,11.2 µM,Activity [3]: inactive; Activity [4]: inactive
C[C@H](COC(=O)c1ccccc1Cl)[C@H]1CC[C@H]2[C@@H](O)CCC[C@]12C,14.4 µM,46.8 µM,–
CC(C)CC(=O)OC[C@@H](C)[C@H]1CC[C@H]2[C@@H](O)CCC[C@]12C,47.5 µM,56 µM,–
